The test system of series [1] is cultured cells. Description: Viable cells by CellTiter-Glo, static plates versus fluidics device cultured cells treated over 7 and 9 days. It counts as cell-based. An excerpt: Referring to FIG. 46, a comparison of static plates and fluidics device 100 cultured cells treated with acetaminophen (APAP) over 7 and 9 days is depicted. CellTiter-Glo was used to measure viable cells. Data is normalized to vehicle (DMSO) control.
(In ATP-based viability assays light output follows the ATP content of the culture.)

The test system of series [2] is HepG2 cells.
Protocol: (§1) To compare the effects of flow on response of HepG2 cells to Tamoxifen, cells were treated in the wells of the fluidics device where the drug was applied either to the source well at two different rates (2× and 3×), or was applied directly to individual wells in the absence of flow (static). For each condition, HepG2 cells were seeded into the individual wells of the fluidics device at a density of 30,000 cells per well in 50 uL media. This density corresponded to approximately 60% confluence. […] HepG2 cells in a fluidics device were treated with increasing concentrations of Tamoxifen over time. 150 uM of Tamoxifen was infused into the source well of the fluidics device either 2 times per day (2×) or three times per day (3×). Two acellular rows were infused with 1 uM Fluorscein to enable calculation of absolute concentration at any given time. The reagent CellTox™ Green was used to monitor cellular toxicity. Area under the curve values for each timepoint were obtained and plotted against effect expressed as a % maximum of (treated/control). Data was pooled together to obtain a single plot. EC50 values were calculated by a Sigmoid EMax model in PKSolver.
(§2) For the 2× and 3× experiment, to utilize Fluorescein as a standard for concentration, rows A and B remained acellular. After acclimating one day, media was changed to media containing a 1:2000 dilution of CellTox™ Green using volume of 100 uL per well. 400 uL of CellTox™ Green containing media was also added to the source well. Fluidic connections were allowed to form and stabilize for 30 minutes at 37° C. in a humidified incubator. Once fluid connections in each row was confirmed, 200 uL of media containing CellTox™ Green with either 150 uM Tamoxifen in 0.1% DMSO or 0.1% DMSO alone was added to the source well. To rows A&B, 200 uL of 1 uM Fluorescein in 0.1% DMSO was added to the source well. For all conditions, fluorescence was monitored using a Tecan Infinite Pro M1000 multimode plate reader optimized for Z-heights focal plane. For the 2× and 3× plates, media flow was maintained by syphoning 100 uL from well 11 and applying 100 uL fresh dosing solution to the source well at cadence corresponding to twice pre day (2×) or three times per day (3×).
(§3) For static fluid conditions, after seeding, cells acclimated for one day and then media was changed to 50 uL of media containing the noted concentration of Tamoxifen in 0.1% DMSO or 0.1% DMSO alone. Incubation proceeded for 24 hours where analysis of fluorescence determined the degree of cell death in each well. Nine replicates of each concentration were averaged.
(§4) For determining the concentration at any given time in the 2× and 3× flow plates, the RFU values obtained from the a-cellular Fluorescein control rows were averaged for each column and an actual Fluorescein concentration was determined using the Fluorescein Standard curve (see FIG. 33). The starting concentration of Fluorescein was 1 uM and the starting concentration of Tamoxifen was 150 uM therefore, the amount of fluorescein in each well was multiplied by 150 to obtain the corresponding concentration of Tamoxifen. The area under the curve (AUC) for each timepoint was obtained by multiplying the concentration value by the time in hours since the last time point using the AUCt function in PKSolver. For static conditions, the concentration was constant for the entire treatment time, therefore to obtain AUC the concentration was multiplied by 24 hours. […]
Series [3] relates to HepG2 cells. Description: Cytotoxicity of HepG2 cells with CellTox Green, fluidics device (flow) versus static culture, EC50 based on AUC exposure.
Protocol: as §1, §2, §3, §4

SMILES strings stand for the structures. Read-outs that look alike come from different tables or passages of the source.

These results are taken from US9829499B2, “Method and related systems for use with a fluidics device” (SciKon Innovation, Inc., priority 2015, dated 2017).

Turning to `CC(=O)Nc1ccc(O)cc1` [APAP, Acetaminophen], the “toxicity (viable cells, normalized to vehicle control)” value in series [1] (fluidics device, Day 7) is “downstream cell death effect”; in series [1] (fluidics device, Day 9), “More pronounced downstream metabolite effect”; in series [1] (static plate, Day 9, 2.5 mM), “marginal effect”; in series [1] (static plate, Day 9, highest concentration 5 mM) it was “obvious cell death”; in series [1] (static plates, Day 7) it was “marginally detectable only at highest concentration”. Moreover, in series [2], the “Observed EC-50 in downstream wells versus expected when using standard static culture methods” value was “different from expected”. Further, the “what the observed EC50 suggests (effect of metabolism on cytotoxicity)” value in series [2] was “bio-activation of a toxic intermediate”.
As to `CC/C(=C(\c1ccccc1)c1ccc(OCCN(C)C)cc1)c1ccccc1` [Tamoxifen], the “sensitivity of HepG2 cells in the flow system relative to static systems (comparison of AUC EC-50s)” value in series [3] (CellTox Green, flow system less sensitive than static) is “approximately 4 fold”. Further, the “Observed EC-50 in downstream wells versus expected when using standard static culture methods” value in series [3] (fluidics device downstream wells) is reported as “different from expected”. Also, the “what the observed EC50 suggests (effect of metabolism on cytotoxicity)” value in series [3] (fluidics device downstream wells versus static) is “deactivation”.
